Laboratory results reported in US6060046A, “Antifouling compositions” (Unisearch Limited, priority 1994, dated 2000).

Experiments:
[1] = system: cyprids of the cosmopolitan fouling barnacle Balanus amphitrite; assay: Inhibition of settlement of barnacle cyprid larvae, metabolites dissolved in water; assay type: in vivo; details: 24 hr, based on FIGS. 2 and 3
Procedure: Settlement assays were carried out using cyprids of the cosmopolitan fouling barnacle Balanus amphitrite. The methods used were similar to those used previously (Rittschof et al, 1994, Willemson 1994). Adult brood stock were maintained under controlled light (15 hr light: 9 hr dark) and temperature (28° C.) conditions and fed larvae of the brine shrimp Artemia salina and the diatom Skeletonema costatum. Recently spawned nauplii of B. amphitrite were collected and reared on Skeletonema costatum under the same conditions as adult stocks until reaching cyprid stage after four to five days. Cyprid larvae were subsequently filtered from the culture and maintained in filtered seawater at 5° C. for five days prior to use in settlement assays.
Assays used purified metabolites at concentrations ranging from 100 μg to 0.1 ng per millilitre. […]
Tests were conducted by adding 45-65 cyprids to petri-dishes (47 mm) containing five mls of either test solution, filtered seawater control, or DMSO control. […] The dishes were then rinsed and the percent settlement of cyprids was determined by counting settled and non settled larvae.
The effects of Delisea pulchra metabolites on the settlement of barnacle cyprid larvae, the growth of bacteria and the settlement and germination of algal spores were analysed in two ways. […]

marine bacterium SW8 = assay: Inhibition of bacterial growth, marine isolate SW8; assay type: cell-based; details: c = control
Procedure: Assays to determine the antibacterial effect of Delisea metabolites used the marine isolate SW8 (Neu et al., 1991). […] Purified metabolites 1-4 were dissolved in ethyl acetate (10 mg/ml-10 μg/ml) and were added in volumes of 20 μl to sterilised McCartney bottles containing 19 mls of filter sterilised artificial seawater (ASW) medium supplemented with a trace vitamin and mineral solution (Schneider et al., 1994). Two reference compounds for antibacterial activity, the antibiotic gentamicin (Sigma)and a saturated copper (II) oxide solution, were also used in these tests. Following addition of metabolites, antibiotics or copper, the media was inoculated with SW8. The inoculum for the assay was taken from a continuous culture fermenter operating at a cell density of 10^7 cells/ml. The final concentration of metabolites and antibiotic tested ranged from 10 μg/ml to 10 ng/ml. Control bottles with media only, and media with 20 μl EtOAc added, were inoculated with SW8 and run concurrently with each experiment.
After mixing, 200 μl from each bottle was aseptically transferred to a well in a Nunc Tissue Culture plate (96 well). Plates were incubated aerobically at 30° C. with shaking. Growth was monitored by optical density (600 nm) every hour for 12 hours after which growth was monitored every four hours for a further 18 hours.
The effects of Delisea pulchra metabolites on the settlement of barnacle cyprid larvae, the growth of bacteria and the settlement and germination of algal spores were analysed in two ways. Firstly, we used Analysis of Variance (ANOVA) followed by Tukey's multiple comparison tests to determine which compounds, at which concentrations, had statistically significant effects on the test organisms. Analyses were done using the Statview II statistical package. These procedures enable us to determine the minimum concentration of a compound necessary to have some significant effect, and to look in a detailed way at variation in the effects of different compounds.

Compound	EC50 + 95% conf. int. (50% settlement inhibition) [1]	Compounds in order of increasing activity (growth inhibition) (marine bacterium SW8; 4 hours, 10 ng/mL)	Compounds in order of increasing activity (growth inhibition) (marine bacterium SW8; 4 hours, 100 ng/mL)	Compounds in order of increasing activity (growth inhibition) (marine bacterium SW8; 4 hours, 1.0 μg/mL)	Compounds in order of increasing activity (growth inhibition) (marine bacterium SW8; 4 hours, 10 μg/mL)	Compounds in order of increasing activity (growth inhibition) (marine bacterium SW8; 11.5 hours, 10 ng/mL)	Compounds in order of increasing activity (growth inhibition) (marine bacterium SW8; 11.5 hours, 100 ng/mL)	Compounds in order of increasing activity (growth inhibition) (marine bacterium SW8; 11.5 hours, 1.0 μg/mL)	Compounds in order of increasing activity (growth inhibition) (marine bacterium SW8; 11.5 hours, 10 μg/mL)	Compounds in order of increasing activity (growth inhibition) (marine bacterium SW8; third panel, time not given, 10 ng/mL)	Compounds in order of increasing activity (growth inhibition) (marine bacterium SW8; third panel, time not given, 100 ng/mL)	Compounds in order of increasing activity (growth inhibition) (marine bacterium SW8; third panel, time not given, 1.0 μg/mL)	Compounds in order of increasing activity (growth inhibition) (marine bacterium SW8; third panel, time not given, 10 μg/mL)
O=S(=O)([O-])[O-].[Cu+2] [CuSO4]	0.40(0.25-0.77) μg/ml												
gentamicin		gent c 4 2 1 3	gent 4 c 2 3 1	c gent 2 1 4 3	c 1 gent 2 3 4	gent c 2 4 1 3	gent 4 2 c 1 3	c gent 1 2 3 4	c 1 2 gent 3 4	gent 4 1 c 3 2	gent 4 3 2 c 1	2 c 1 3 4 gent	c 1 2 gent 3 4
